Earlier results in US20250230478A1, “COMBINATION OF NUCLEIC ACID SEQUENCES ENCODING PROTEINS DERIVED FROM HELICHRYSUM UMBRACULIGERUM, AND ANY […], TISSUE, AND ORGANISM COMPRISING SAME” (YEDA RESEARCH AND DEVELOPMENT CO. LTD., priority 2022, published 2025).

What was measured:
5-HT1A receptor = target: T1, 5-HT1A receptor (Homo sapiens, UniProt P08908)
T1 sequence (P08908 1-422): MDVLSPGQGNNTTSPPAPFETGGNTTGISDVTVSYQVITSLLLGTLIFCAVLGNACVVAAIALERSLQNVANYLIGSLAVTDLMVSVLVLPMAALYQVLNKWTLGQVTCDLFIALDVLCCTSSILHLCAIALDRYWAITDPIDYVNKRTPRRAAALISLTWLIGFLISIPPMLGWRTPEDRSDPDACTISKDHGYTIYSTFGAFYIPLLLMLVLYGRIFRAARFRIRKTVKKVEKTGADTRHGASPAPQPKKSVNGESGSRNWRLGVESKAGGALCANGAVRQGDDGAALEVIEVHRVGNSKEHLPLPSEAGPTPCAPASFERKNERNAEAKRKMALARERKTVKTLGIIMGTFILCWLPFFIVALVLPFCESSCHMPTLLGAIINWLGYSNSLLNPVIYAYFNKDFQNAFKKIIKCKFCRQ

CB1 receptor = CB1 receptor (Homo sapiens, UniProt P21554)
Chain of CB1 receptor (P21554 whole entry): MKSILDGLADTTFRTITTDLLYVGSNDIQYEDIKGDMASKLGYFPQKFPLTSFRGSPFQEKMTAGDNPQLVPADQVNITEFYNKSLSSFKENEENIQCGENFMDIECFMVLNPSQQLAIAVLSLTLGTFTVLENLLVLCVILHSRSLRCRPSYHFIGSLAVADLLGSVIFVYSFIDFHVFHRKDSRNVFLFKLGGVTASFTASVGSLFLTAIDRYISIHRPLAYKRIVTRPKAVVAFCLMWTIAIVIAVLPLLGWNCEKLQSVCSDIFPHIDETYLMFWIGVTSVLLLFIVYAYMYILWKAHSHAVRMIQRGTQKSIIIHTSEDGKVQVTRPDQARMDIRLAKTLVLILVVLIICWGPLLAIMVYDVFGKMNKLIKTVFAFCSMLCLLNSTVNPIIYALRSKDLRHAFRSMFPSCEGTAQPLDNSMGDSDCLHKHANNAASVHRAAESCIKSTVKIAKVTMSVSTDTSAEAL

In the case of CCCCCc1cc(O)c(C/C=C(\C)CCC=C(C)C)c(O)c1 [CBG, cannabigerol], the “affinity as α2-adrenergic receptor agonist” value (α2-adrenergic receptor) is listed as “high affinity”, the “affinity as 5-HT1A receptor antagonist” value (5-HT1A receptor) is listed as “moderate affinity” and the “affinity as CB1 receptor antagonist” value (CB1 receptor) is listed as “low affinity”.
